Measurements published in ChEMBL document CHEMBL1201862, “PubChem BioAssay data set” (2004).
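Five concentrations, 48 hours, 96-well plates. The concentration for 50% growth inhibition is given as GI50.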 Active and inactive are the calls of the source. Cut-off read from the data, not from the text of the source: active = GI50 up to about 1.1 µM and inactive = higher.

Columns and labels:
Experiment in all cases: DTP human tumour cell line panel, 48 h
LXFL 529 = system: LXFL 529
KM-20L2 = system: KM-20L2
DMS-273 = system: DMS-273
XF498 = system: XF498
SNB-78 = system: SNB-78
HOP-18 = system: HOP-18
DMS-114 = system: DMS-114
RXF 631 = system: RXF 631
M19-MEL = system: M19-MEL

Measured: GI50

CN1CCc2cc3c4cc2C1Cc1ccc(cc1)Oc1cc(ccc1O)CC1c2c(cc(O)c(c2O4)O3)CCN1C (stereo not drawn)
inactive: LXFL 529 2.53 µM | KM-20L2 2.9 µM | DMS-273 1.75 µM | XF498 1.69 µM | SNB-78 5.66 µM | HOP-18 3.52 µM | DMS-114 2.05 µM | RXF 631 1.94 µM | M19-MEL 1.78 µM

O=C1CC(c2n[nH]c3ccccc23)C(=O)N1c1ccccc1 (stereo not drawn)
inactive: LXFL 529 > 95.9 µM | KM-20L2 > 100 µM | DMS-273 > 100 µM | XF498 > 100 µM | SNB-78 > 100 µM | HOP-18 > 100 µM | DMS-114 > 100 µM | RXF 631 > 100 µM | M19-MEL > 100 µM
